The values that follow are results of earlier work, collected in paper PMC10005815 (Journal of Medicinal Chemistry, 2023).

What is called Ki is the dissociation constant of the complex between target and ligand, obtained from inhibition or displacement. Usually IC50 stands for the concentration at which inhibition is half-maximal. A word on the EC50: it is the concentration that produces a half-maximal response. For orientation: CC50 means the concentration at which the toxic effect on the cells reaches its halfway point. What is called EC90 is the point of the concentration-response curve where the effect stands at 90%. What is called Kd is the equilibrium constant for the complex coming apart.

The conditions of data set [1]: rat, in vivo.
Data set [2] addresses SARS-CoV-1 M^pro. Conditions: for Ki: read-out: SARS-CoV-1 M^pro Ki.
Data set [3] concerns the target SARS-CoV-2 M^pro.
Data set [4] deals with MERS-CoV.
Data set [5] concerns HCoV-229E. The following applies: for EC50: read-out: HCoV-229E EC50.
In data set [6] the test system is HCoV-NL63 M^pro.
The subject of data set [7] is SARS-CoV-1.
Data set [8] relates to SARS-CoV-2.
Data set [9] relates to SARS-CoV-1 replicon.
Data set [10] has as its system Ebola.
Data set [11] addresses RdRp from SARS-CoV-2. Conditions: read-out: Predicted Ki for binding to the protein active site.
Data set [12] has as its system SARS-CoV-1. Conditions: mouse, in vivo.
Data set [13] has as its system Vero cells.
Data set [14] has as its system SARS-CoV-2 PsV.
Data set [15] relates to TMPRSS2.
For data set [16], the target named is TMPRSS2. This is another data set of the same source.
For data set [17], the system named is SARS-CoV-2 Omicron BA.1 and BA.2. Conditions: in vivo.
In data set [18] the target is HCoV-229E M^pro.
The test system of data set [19] is MERS-CoV S protein-mediated cell–cell fusion. The following applies: read-out: IC50 in vitro fusion assay (MERS-CoV).
For data set [20], the system named is panel of proteases. Conditions: read-out: IC50 proteases (selectivity panel).
Data set [21] relates to Vero E6/TMPRSS2 cells.
Data set [22] has as its system HCoV-OC43. The following applies: read-out: HCoV-OC43 EC90.
Data set [23] deals with SARS-CoV-1 PL^pro.
The target in data set [24] is Akt.
For data set [25] the following is noted: buffer.
Data set [26] relates to COVID-19. The following applies: human, in vivo.
Data set [27] relates to Vero E6 cells.
The test system of data set [28] is human mitochondrial RNA polymerase (h-mtRNAP).
Where [29] appears, read: read-out: SARS-CoV-1 M^pro IC50.

Like-named read-outs stand apart in the source and are kept apart here. * marks the point of attachment. Cbz = O=C(OCc1ccccc1)* Bounds are passed on as bounds.

Turning to `COc1cccc2[nH]c(C(=O)N[C@@H](CC(C)C)C(=O)N[C@@H](C[C@@H]3CCNC3=O)C(=O)c3nc4ccccc4s3)cc12` [5h], the Bioavailability result in [1] is listed as “low bioavailability”. Further, the Ki in data set [2] was 6.3 nM; in data set [3] (read-out: SARS-CoV-2 M^pro Ki), 17.6 nM. Turning to `O=C(/C=C/c1ccccc1)N[C@@H](CC1CCCCC1)C(=O)N[C@@H](C[C@@H]1CCNC1=O)C(=O)C(=O)NCc1ccccc1` [11r], the 50% inhibitory concentration (IC50) in [2] (setting [29]) was 710 nM; in data set [6] it was 12300 nM. Moreover, the “S.I. MERS-CoV (CC50/EC50)” value in [4] is recorded as 1.1 × 10^5. Moreover, the half-maximal effective concentration (EC50) in data set [5] was 1800 nM; in [7] (read-out: SARS-CoV-1 EC50) it was 2100 nM. With `CC(C)(C)OC(=O)Nc1cccn([C@@H](CC2CC2)C(=O)N[C@@H](C[C@@H]2CCNC2=O)C(=O)C(=O)NCc2ccccc2)c1=O` [13b], the EC50 is 4000 nM in [8] (read-out: SARS-CoV-2 EC50) and 1750 nM in data set [9]. Further, the IC50 in data set [2] (setting [29]) was 900 nM. Regarding `COc1cccc2[nH]c(C(=O)N[C@@H](CC(C)C)C(=O)N[C@@H](C[C@@H]3CCCNC3=O)C(=O)COC(=O)c3c(C)cc(C)nc3C)cc12` [15l], the 50% effective concentration (EC50) in data set [5] is 48 nM. Also, the concentration for half-maximal inhibition (IC50) in data set [3] (read-out: SARS-CoV-2 M^pro IC50) was 19 nM.

As to `O=C[C@H](C[C@@H]1CCNC1=O)NC(=O)[C@H](Cc1ccccc1)NC(=O)c1cc2ccccc2[nH]1` [18p], the concentration for a half-maximal effect (EC50) in [8] (read-out: SARS-CoV-2 EC50) was 290 nM.

On to `O=C(O)C1=CC(=C(c2ccc(O)c(C(=O)O)c2)c2ccc(O)c(C(=O)O)c2)C=CC1=O` [ATA, Aurintricarboxylic acid], for which, in data set [7], the “Inhibition of mRNA transcription with respect to control” value was “more than 1000 fold” and the “SARS-CoV-1 replication IC50” value was 200 µg/mL. Regarding `Cc1cccc(/C=N/Nc2cc(N3CCOCC3)nc(OCCc3ccccn3)n2)c1` [Apilimod], the “Concentration preventing EVD infection of several cell lines” value in data set [10] was ~0.1 µM.

On to `COc1ccc2c(c1)[C@@H]1C[C@]1(C(=O)N1[C@@H]3CC[C@H]1CN(C)C3)Cn1c-2c(C2CCCCC2)c2ccc(C(=O)NS(=O)(=O)N(C)C)cc21` [Beclabuvir], for which the Ki in data set [11] was ~50 nM. In the case of `CN(C)C(=O)COC(=O)Cc1ccc(OC(=O)c2ccc(NC(=N)N)cc2)cc1` [Camostat], the “Reduction of MERS-CoV production” value in data set [4] is recorded as 270 fold. The “Survival rate to SARS-CoV-1” value in [12] is ~60%.

As to `NC1(C(=O)N[C@@H](CCO)c2ccc(Cl)cc2)CCN(c2ncnc3[nH]ccc23)CC1` [Capivasertib], the 50% cytotoxicity concentration in data set [13] was 82 µM.

Consider `CCOC(=O)[C@H]1OC1C(=O)N[C@@H](CC(C)C)C(=O)NCCC(C)C` (stereo partly drawn) [E64D], for which the “Reduction in the entry of SARS-CoV-2 PsV” value in [14] is 92.5%.

Turning to `N=C(N)Nc1ccc(C(=O)O)cc1` [GBA, 4-guanidinobenzoic acid], the TMPRSS2 inhibition entry in data set [15] is “inactive”. Turning to `N=C(N)c1cccc(C[C@H](NS(=O)(=O)c2cccc(-c3ccc(Cl)cc3Cl)c2)C(=O)N2CCC(CCN)CC2)c1` [I-432], the inhibitory constant (Ki) in [16] is 0.9 nM. Turning to `CC(C)C(=O)OC[C@H]1O[C@@H](n2ccc(NO)nc2=O)[C@H](O)[C@@H]1O` [Molnupiravir], the “Efficacy in inhibiting SARS-CoV-2 replication relative to remdesivir” value in data set [8] is 5–10 fold. Also, the “Effect on virus titers” value in data set [17] is reported as “only reduced the lung virus titers”.

On to `Cc1cc(C(=O)N[C@@H](C)C(=O)N[C@H](C(=O)N[C@@H](CC(C)C)C(=O)N[C@H](/C=C/C(=O)OCc2ccccc2)C[C@@H]2CCNC2=O)C(C)C)no1` [N3], for which the inhibitory constant (Ki) in data set [18] was 1670 nM. With `N=C(N)Nc1ccc(C(=O)Oc2ccc3cc(C(=N)N)ccc3c2)cc1` [Nafamostat], the half-maximal inhibitory concentration (IC50) in data set [19] was ~1 nM. Turning to `COc1cccc2[nH]c(C(=O)N[C@@H](CC(C)C)C(=O)N[C@@H](C[C@@H]3CCNC3=O)C(=O)CO)cc12` [PF-00835231], the concentration giving a half-maximal response (EC50) in data set [7] (read-out: SARS-CoV-1 EC50) was 4800 nM. Besides, in data set [20], the concentration for half-maximal inhibition (IC50) is > 10000 nM. As for `CC(C)(C)[C@H](NC(=O)C(F)(F)F)C(=O)N1C[C@H]2[C@@H]([C@H]1C(=O)N[C@H](C#N)C[C@@H]1CCNC1=O)C2(C)C` [PF-07321332], in data set [17], the “Effect on virus titers” value is on record as “only reduced the lung virus titers”. For the compound `Cn1cnc(Cn2c(=O)[nH]/c(=N\c3cc4cn(C)nc4cc3Cl)n(Cc3cc(F)c(F)cc3F)c2=O)n1` [S-217622], the EC50 is 370 nM in data set [8] (read-out: SARS-CoV-2 WT strain EC50), 1400 nM in [4] (read-out: MERS-CoV EC50), 5500 nM in data set [5] and 210 nM in data set [7] (read-out: SARS-CoV-1 EC50). Besides, in [17], the “Effect on virus titers” value is “additionally decreased the virus titers in the nasal turbinates”. In addition, in [21], the 50% cytotoxic concentration (CC50) is > 100000 nM. The EC90 in [22] is 74 nM. For `CCC(C)(C)NC(=O)C(c1ccn(C)c1)N(C(=O)Cn1nnc2ccccc21)c1ccc(NC(C)=O)cc1` (stereo not drawn) [SID24808289], the IC50 in data set [2] (setting [29]) is 6200 nM; in data set [23], > 60000 nM.

Turning to `CCc1ccccc1NC(=O)CSC(=O)NNC(=O)[C@H](Cc1c[nH]c2ccccc12)NC(=O)OC(C)(C)C` [SID-26681509], the “Decrease of SARS-CoV-2 pseudovirion entry” value in data set [14] is on record as “about 76%”. For `CC(OC(C)(C)C)[C@H](NC(=O)OCc1ccccc1)C(=O)N[C@@H](CC1CCCCC1)C(=O)N[C@H](C=O)C[C@@H]1CCNC1=O` (stereo partly drawn) [TG-0205221], the figures for the inhibition constant (Ki) in data set [18] and in data set [2] were 68 nM and 53 nM, respectively. On to `COc1ccc(C(=O)Nc2cccc(C(F)(F)F)c2)cc1Nc1nc(-c2cccnc2)c2[nH]ccc2n1` [XMU-MP-7], for which the Kd in data set [24] was 6.4 nM.

As for `CN(C)CCCSc1ccccc1NC(=O)/C=C/c1ccccc1` [cinanserin], the IC50 in [2] (read-out: M^pro IC50) is ~5000 nM; in [5] (read-out: HCoV-229E IC50 (antiviral assay)) it was 19000 nM. Turning to `O=C(On1nnc2ccccc21)c1ccc2[nH]ccc2c1` [compound 8], the Ki in [2] is 7.5 nM.

In the case of `O=C(Oc1cncc(Cl)c1)c1cccc2[nH]ccc12` [compound 10], in data set [2] (setting [29]), the half-maximal inhibitory concentration (IC50) was 30 nM. The EC50 in [7] (read-out: SARS-CoV-1 EC50) is 6900 nM. Consider `O=C(Oc1cncc(Br)c1)c1ccco1` [compound 39], for which the 50% inhibitory concentration (IC50) in data set [2] (setting [29]) is 50 nM. The T1/2 result in data set [25] is “[drawing 13] 39 SARS-CoV-1 M^pro IC50= 50 nM T1/2 = 119 h, phosphate buffer pH= 7.5”.

In the case of `CCOc1cc2ncc(C#N)c(Nc3ccc(F)c(Cl)c3)c2cc1NC(=O)/C=C/CN(C)C` [pelitinib], the EC50 in data set [8] (read-out: EC50 (antiviral)) is 1250 nM. As to `CCC(CC)COC(=O)[C@H](C)N[P@](=O)(OC[C@H]1O[C@@](C#N)(c2ccc3c(N)ncnn23)[C@H](O)[C@@H]1O)Oc1ccccc1` [remdesivir, Remdesivir], the half-maximal inhibitory concentration (IC50) in data set [8] (read-out: SARS-CoV-2 infection IC50) is 770 nM. Also, the “Reduction of hospitalization compared to placebo” value in data set [26] was 87%. Moreover, in [27], the cytotoxic concentration (CC50) was > 100000 nM. With `N#C[C@@]1(c2ccc3c(N)ncnn23)O[C@H](COP(=O)(O)OP(=O)(O)OP(=O)(O)O)[C@@H](O)[C@H]1O` [remdesivir-TP], the “Selectivity with respect to ATP” value in [28] is on record as “up to 500 fold”. For Cbz-Val-Phe-aldehyde [MDL28170], in [7] (read-out: EC50 neutral red uptake assay), the concentration giving a half-maximal response (EC50) is 500 nM.
